Assay results as given in patent US7109206B2.

How the values were obtained:
[1] = system: patients with severe coronary artery disease; assay: Angina symptoms and clinical outcome of treated patients (case reports); assay type: in vivo, human; details: for time to clearing of congestive heart failure: furosemide 40 mg twice a day, digoxin 0.25 mg, warfarin 5 mg once a day; for angina frequency: buspirone 20 mg t.i.d.
Excerpt: The patient population in this study consisted of 11 individuals with severe coronary artery disease who were refractory to CABG or PCTA or who declined recommended CABG or PCTA, and one individual with severe carotid artery stenosis. The study group consisted of 10 men and 2 women, with a median age at entry into the program of 65 years (mean, 65.8 years), and a mean time in program of 4.1 years (range, 9 months to 12 years).
In this study, ten patients experienced angina at the time of presentation. The median time to remission of anginal symptoms was calculated on the basis of the nine patients who presented with angina and for whom records of anginal frequency were accessible.

[2] = Serum lipids and laboratory values of treated patients (case reports)
[3] = system: patients with severe coronary artery disease; assay: Tolerability / adverse effects in treated patients

With `COc1ccc([C@@H]2Sc3ccccc3N(CCN(C)C)C(=O)[C@@H]2OC(C)=O)cc1` [diltiazem] the angina ([1]; Patient three, diltiazem restarted after one month of lisinopril) was “prompt remission of angina”.

In the case of `CC(=O)CC(c1ccccc1)c1c(O)c2ccccc2oc1=O` (centres unmarked) [warfarin], the “time to clearing of congestive heart failure” value ([1]; Patient three, given together) is reported as 24 h.

In the case of `O=c1n(CCCN2CCN(c3cccc(Cl)c3)CC2)nc2ccccn12` [trazodone], the “relief of fatigue and difficulty sleeping” value ([1]; Patient three, trazodone 50 mg and imipramine 25 mg at bedtime, given together) is reported as “fair to moderate relief”.

In the case of colestipol, the angina ([1]; Patient five, colestipol 12 g per day) is reported as “severity of their angina declined” and the “serum total cholesterol, mean of three determinations” value ([2]; Patient five, colestipol 12 g per day, declined from 241) is reported as 217 mg/dL.

For `O=C(O)c1cccnc1` [niacin], the adverse effect ([3]; Patient three, niacin 3.0 g/day, weeks 5-7, dose decreased to 1.5 g/day) was “itching and flushing” and the tolerability ([3]; Patient two, niacin 3 g per day, dose decreased to 1 g per day) was “intolerance appeared”.

With `CCC(C)(C)C(=O)O[C@H]1C[C@@H](C)C=C2C=C[C@H](C)[C@H](CC[C@@H]3C[C@@H](O)CC(=O)O3)[C@H]21` [simvastatin] the “serum total cholesterol, mean of five determinations” value ([2]; Patient four, simvastatin 40 mg per day substituted for pravastatin in the regimen, range 81-146) was 118 mg/dL, the “HDL cholesterol, mean of five determinations” value ([2]; Patient four, simvastatin 40 mg per day, range 37-71) was 55 mg/dL and the HDL ([2]; Patient four, year of 1995) was 82 mg/dL. The LDL ([2]; Patient four, year of 1995) was 53 mg/dL, the total cholesterol ([2]; Patient four, year of 1995) was 121 mg/dL and the triglycerides ([2]; Patient four, year of 1995) was 44 mg/dL.

In the case of `O=C1CC2(CCCC2)CC(=O)N1CCCCN1CCN(c2ncccn2)CC1` [buspirone], the angina ([1]; Patient five, buspirone 15 mg t.i.d. added, induction phase) is reported as “their angina remitted”, the angina frequency ([1]; Patient five, no use of nitroglycerin) is reported as “one episode of mild angina in two weeks” and the angina frequency ([1]; Patient five, through June of the next year) is reported as “no episodes of angina”. The angina symptoms ([1]; Patient five, buspirone increased to 20 mg t.i.d., isosorbide dinitrate discontinued) was “Marked palliation of the symptoms”, the “chest tightness with anxiety or distress” value ([1]; Patient one, buspirone 10 mg b.i.d. added to medications) was “no further episodes of chest tightness were reported” and the “frequency of angina symptoms” value ([1]; Patient, buspirone 30 mg per day, after one month 15 mg t.i.d.) was “remained approximately constant”. For the same molecule, the “severity of angina symptoms” value ([1]; Patient, buspirone 30 mg per day, after one month 15 mg t.i.d., added to medications) was “declined markedly, from pain to mild tightness”, the anginal symptoms ([1]; Patient, buspirone, six months after initiation of therapy) was “resolved completely” and the “relief from refractory unstable angina” value ([1]; summary of results) was “effective in providing relief from refractory unstable angina”.

In the case of `CC[C@H](C)C(=O)O[C@H]1C[C@@H](C)C=C2C=C[C@H](C)[C@H](CC[C@@H]3C[C@@H](O)CC(=O)O3)[C@H]21` [lovastatin], the adverse event ([3]; Patient four, on lovastatin 30 mg per day regimen, pravastatin substituted) is reported as “mild conjunctivitis of unknown etiology” and the total cholesterol ([2]; Patient two, fifth year, lovastatin discontinued, range 155 to 194) is reported as 176 mg/dL.

With `O=[N+]([O-])OCC(CO[N+](=O)[O-])O[N+](=O)[O-]` [nitroglycerin] the angina after discontinuation ([1]; Patient five, discontinuation of the nitroglycerin) was “five episodes of angina”, the nonexertional angina ([1]; Patient five, transdermal nitroglycerin) was “refractory” and the left neck pain ([1]; Patient two, 15 months after induction of therapy) was “relieved”.

For `C[C@H]1O[C@@H](O[C@H]2[C@@H](O)C[C@H](O[C@H]3[C@@H](O)C[C@H](O[C@H]4CC[C@@]5(C)[C@H](CC[C@@H]6[C@@H]5C[C@@H](O)[C@]5(C)[C@@H](C7=CC(=O)OC7)CC[C@]65O)C4)O[C@@H]3C)O[C@@H]2C)C[C@H](O)[C@@H]1O` [digoxin], the “time to clearing of congestive heart failure” value ([1]; Patient three, given together) was 24 h.

With `NCCCC[C@H](N[C@@H](CCc1ccccc1)C(=O)O)C(=O)N1CCC[C@H]1C(=O)O` [lisinopril] the angina ([1]; Patient three, lisinopril 5 mg/day substituted for diltiazem 60 mg four times a day) was “Angina recurred with mild to moderate exercise”.
